The record followed here is ChEMBL document CHEMBL4831499, “Benzimidazole-galactosides bind selectively to the Galectin-8 N-Terminal domain: Structure-based design and optimisation” (Eur J Med Chem, 2021).

In test [1] the target is T1, Galectin-3 (Homo sapiens, UniProt P17931). Nature of the test: Binding affinity to human galactin-3 assessed as dissociation constant by competitive fluorescence polarization assay. For orientation: Polarisation of emitted light reports the rotation of a fluorescent probe.
In test [2] the target is T2, Galectin-8 (Homo sapiens, UniProt O00214).
T2 sequence (O00214 whole entry): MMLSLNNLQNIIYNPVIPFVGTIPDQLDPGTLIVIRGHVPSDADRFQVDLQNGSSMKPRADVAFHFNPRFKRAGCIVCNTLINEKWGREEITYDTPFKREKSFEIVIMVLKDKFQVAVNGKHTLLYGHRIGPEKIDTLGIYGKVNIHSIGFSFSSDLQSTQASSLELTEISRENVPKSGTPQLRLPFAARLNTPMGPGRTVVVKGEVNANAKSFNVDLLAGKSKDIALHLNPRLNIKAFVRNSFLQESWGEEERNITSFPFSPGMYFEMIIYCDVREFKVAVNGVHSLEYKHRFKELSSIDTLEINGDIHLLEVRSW
The test is described as follows: Binding affinity to human galactin-8 N terminal domain assessed as dissociation constant by competitive fluorescence polarization assay.

The target in test [3] is T1, Galectin-3. Nature of the test: Binding affinity to galectin-3 (unknown origin).
The target of test [4] is T2, Galectin-8. The test is described as follows: Binding affinity to galectin-8 N-terminal domain (unknown origin).
In test [5] the target is T1, Galectin-3. The test is described as follows: Binding affinity to human galactin-3 assessed as dissociation constant at 1500 uM by competitive fluorescence polarization assay.
For test [6], the species on record is Homo sapiens. The test is described as follows: Selectivity ratio of Kd for binding affinity to human galactin-8 N terminal domain to Kd for binding affinity to human galactin-3.
The species entered for test [7] is Homo sapiens. Nature of the test: Selectivity ratio of Kd for binding affinity to human galactin-9 N terminal domain to binding affinity to human galactin-8 N terminal domain.
The target in test [8] is T3, Galectin-9 (Homo sapiens, UniProt O00182). The test is described as follows: Binding affinity to human galactin-9 C terminal domain assessed as dissociation constant by competitive fluorescence polarization assay.
The target in test [9] is T2, Galectin-8. The test is described as follows: Binding affinity to human galactin-8 C terminal domain assessed as dissociation constant by competitive fluorescence polarization assay.
Test [10] concerns the target T4, Galectin-4 (Homo sapiens, UniProt P56470).
T4 sequence (P56470 whole entry): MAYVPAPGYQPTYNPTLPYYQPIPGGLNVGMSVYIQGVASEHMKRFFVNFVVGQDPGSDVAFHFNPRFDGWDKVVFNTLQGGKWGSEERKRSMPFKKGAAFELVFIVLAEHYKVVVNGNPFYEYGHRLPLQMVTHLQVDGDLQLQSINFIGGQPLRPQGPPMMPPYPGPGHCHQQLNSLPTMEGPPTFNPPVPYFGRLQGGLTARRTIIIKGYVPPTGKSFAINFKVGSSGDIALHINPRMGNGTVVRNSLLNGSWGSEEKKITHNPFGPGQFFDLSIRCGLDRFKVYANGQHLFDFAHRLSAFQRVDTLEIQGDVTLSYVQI
Nature of the test: Binding affinity to human galactin-4 C terminal domain assessed as dissociation constant by competitive fluorescence polarization assay.

The next test addresses Galectin-1 (Homo sapiens, UniProt P09382). The test is described as follows: Binding affinity to human galactin-1 assessed as dissociation constant by competitive fluorescence polarization assay.
Test [11] has as its target T4, Galectin-4. Nature of the test: Binding affinity to human galactin-4 N terminal domain assessed as dissociation constant by competitive fluorescence polarization assay.
Another test deals with Galectin-7 (Homo sapiens, UniProt P47929). Nature of the test: Binding affinity to human galactin-7 assessed as dissociation constant by competitive fluorescence polarization assay.
The target in test [12] is T3, Galectin-9. Nature of the test: Binding affinity to human galactin-9 N terminal domain assessed as dissociation constant by competitive fluorescence polarization assay.
The species entered for test [13] is Homo sapiens. The test is described as follows: Selectivity ratio of Kd for binding affinity to human galactin-9 C terminal domain to binding affinity to human galactin-8 N terminal domain.
The target in another test is T5, Galectin-2 (Homo sapiens, UniProt P05162).
T5 sequence (P05162 whole entry): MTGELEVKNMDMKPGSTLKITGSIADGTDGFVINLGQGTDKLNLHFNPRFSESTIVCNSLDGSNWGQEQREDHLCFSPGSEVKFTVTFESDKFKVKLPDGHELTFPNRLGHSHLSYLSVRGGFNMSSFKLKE
The test is described as follows: Binding affinity to human galactin-2 assessed as dissociation constant by competitive fluorescence polarization assay.

The target of test [14] is T6, Galectin-8 (Homo sapiens) (UniProt O00214).
T6 sequence (whole entry): T2 sequence (O00214 whole entry)
Nature of the test: Binding affinity to human galactin-8 N terminal domain assessed as dissociation constant at 1500 uM by competitive fluorescence polarization assay.

Calls of active or inactive are those of the source. The calls are words filed in the database; no cut-off is given here. Some results are limits rather than exact numbers.

T3 sequence (O00182 whole entry, the tested form may be a part): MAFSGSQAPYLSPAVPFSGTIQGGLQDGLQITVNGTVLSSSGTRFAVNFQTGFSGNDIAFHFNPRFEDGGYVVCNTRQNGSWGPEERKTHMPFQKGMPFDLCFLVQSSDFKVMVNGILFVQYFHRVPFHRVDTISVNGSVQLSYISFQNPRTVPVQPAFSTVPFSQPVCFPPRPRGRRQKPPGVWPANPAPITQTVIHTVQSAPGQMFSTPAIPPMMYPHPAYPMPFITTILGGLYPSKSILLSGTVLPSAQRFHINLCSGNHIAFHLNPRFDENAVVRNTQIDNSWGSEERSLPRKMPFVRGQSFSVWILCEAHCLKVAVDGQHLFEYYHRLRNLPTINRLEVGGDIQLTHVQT
T1 sequence (P17931 whole entry): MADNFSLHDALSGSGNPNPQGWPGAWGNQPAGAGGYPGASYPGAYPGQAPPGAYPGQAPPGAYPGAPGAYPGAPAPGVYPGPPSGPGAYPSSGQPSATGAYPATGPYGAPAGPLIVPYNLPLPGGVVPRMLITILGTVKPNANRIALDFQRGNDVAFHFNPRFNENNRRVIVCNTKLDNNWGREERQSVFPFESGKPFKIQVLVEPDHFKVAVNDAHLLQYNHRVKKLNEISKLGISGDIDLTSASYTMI
Galectin-1, sequence (P09382 whole entry, the tested form may be a part): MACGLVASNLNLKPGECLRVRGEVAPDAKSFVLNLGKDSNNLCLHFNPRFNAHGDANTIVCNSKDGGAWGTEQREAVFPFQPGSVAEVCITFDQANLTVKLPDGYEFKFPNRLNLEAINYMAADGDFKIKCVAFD
Galectin-7, sequence (P47929 whole entry, the tested form may be a part): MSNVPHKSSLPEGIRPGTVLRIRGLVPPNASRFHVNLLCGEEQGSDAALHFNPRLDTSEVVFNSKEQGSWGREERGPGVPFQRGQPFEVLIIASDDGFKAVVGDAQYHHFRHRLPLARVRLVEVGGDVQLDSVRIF

For the compound `CO[C@@H]1O[C@H](CO)[C@H](O)[C@H](OCc2nc3ccccc3o2)[C@H]1O`, the Kd (in general, the free concentration of one partner at which half of the binding sites on the other are occupied at equilibrium, for simple one-to-one binding) is 620 µM on Galectin-3 [1] and 1600 µM on Galectin-8 [2].
As for `CO[C@@H]1O[C@H](CO)[C@H](O)[C@H](OCc2ccc3ccccc3n2)[C@H]1O`, the Kd on Galectin-3 [3] is 620 µM; on Galectin-8 [4] it was 700 µM.
On to `COC(=O)c1ccc2nc(CO[C@H]3[C@@H](O)[C@@H](CO)O[C@@H](OC)[C@@H]3O)n(C)c2c1`, for which the outcome at Galectin-3 [5] was inactive. For the same compound, the Kd on Galectin-8 [2] was found to be 1100 µM.
As for `COC(=O)c1ccccc1-n1cc(CO[C@H]2[C@@H](O)[C@@H](CO)O[C@@H](OC)[C@@H]2O)nn1`, the Kd at Galectin-3 [1] was 330 µM; at Galectin-8 [2], 1400 µM.
In the case of `COC(=O)c1ccc(-n2cc(CO[C@H]3[C@@H](O)[C@@H](CO)O[C@@H](OC)[C@@H]3O)nn2)cc1`, the Kd is 700 µM on Galectin-3 [1] and above 2000 µM on Galectin-8 [2].
As to `CO[C@@H]1O[C@H](CO)[C@H](O)[C@H](OCc2cn(-c3ccc(C(=O)O)cc3)nn2)[C@H]1O`, the equilibrium dissociation constant (Kd) on Galectin-3 [1] amounted to 190 µM; on Galectin-8 [2] it was 1300 µM.
As to `CO[C@@H]1O[C@H](CO)[C@H](O)[C@H](OCc2ccc3ccc(C(=O)O)cc3n2)[C@H]1O`, the dissociation constant (Kd) came out at 380 µM at Galectin-3 [3] and 110 µM at Galectin-8 [4].
For the compound `COC(=O)c1ccc(-n2cc(CO[C@H]3[C@@H](O)[C@@H](CO)O[C@@H](Sc4ccc(C)cc4)[C@@H]3O)nn2)cc1`, the results for the Kd at Galectin-3 [1] and at Galectin-8 [2] were above 2000 µM and 940 µM, respectively.
For `O=C(O)c1ccc2ccc(CO[C@@H]3[C@@H](O)[C@@H](Sc4ccc(Cl)c(Cl)c4)O[C@H](CO)[C@@H]3O)nc2c1`, the Kd is 1.2 µM on Galectin-3 [3] and 1.5 µM at Galectin-8 [4].
Turning to `CO[C@@H]1O[C@H](CO)[C@H](O)[C@H](OCc2nc3cc(C(=O)O)ccc3n2C)[C@H]1O`, the Kd is 1100 µM on Galectin-3 [1] and above 2000 µM at Galectin-8 [2].
Regarding `CO[C@@H]1O[C@H](CO)[C@H](O)[C@H](OCc2nc3ccc(C(=O)O)cc3n2C)[C@H]1O`, the values for the equilibrium dissociation constant (Kd) on Galectin-3 [1] and on Galectin-8 [2] were 1400 µM and 190 µM, respectively. The Selectivity ratio in the test listed under Homo sapiens [6] is 7.
With `O=C(O)c1ccc2nc(CO[C@@H]3[C@@H](O)[C@@H](Sc4ccc(Cl)c(Cl)c4)O[C@H](CO)[C@@H]3O)[nH]c2c1`, the Selectivity ratio in the test listed under Homo sapiens [7] is 5; in the test listed under Homo sapiens [13] it was 9. Besides, the Kd stood at 4.1 µM on Galectin-3 [1]; 18 µM at Galectin-9 [8]; 450 µM on Galectin-8 [9]; 2.8 µM on Galectin-8 [2]; 160 µM on Galectin-4 [10]; 87 µM at Galectin-1. Further, the Kd on Galectin-4 [11] was determined as 78 µM; at Galectin-7 it was 43 µM; at Galectin-9 [12], 13 µM; at Galectin-2 it was 100 µM.
With `COC(=O)c1ccc2nc(CO[C@H]3[C@@H](O)[C@@H](CO)O[C@@H](OC)[C@@H]3O)[nH]c2c1`, the equilibrium dissociation constant (Kd) stood at 1600 µM at Galectin-3 [1] and 1200 µM on Galectin-8 [2].
As for `Cc1ccc(S[C@@H]2O[C@H](CO)[C@H](O)[C@H](OCc3cn(-c4ccccc4C(=O)O)nn3)[C@H]2O)cc1`, the figures for the Kd at Galectin-3 [1] and at Galectin-8 [2] were 690 µM and 1200 µM, respectively.
On the same counts, the results for `CO[C@@H]1O[C@H](CO)[C@H](O)[C@H](OCc2cn(-c3cccc(C(=O)O)c3)nn2)[C@H]1O` are 500 µM and 640 µM.
For the compound `COC(=O)c1cccc(-n2cc(CO[C@H]3[C@@H](O)[C@@H](CO)O[C@@H](OC)[C@@H]3O)nn2)c1`, the Kd on Galectin-3 [1] was 510 µM; at Galectin-8 [2], 810 µM.
On the same counts, the results for `CO[C@@H]1O[C@H](CO)[C@H](O)[C@H](OCc2nc3ccccc3n2C)[C@H]1O` are 1600 µM and 1200 µM.
Turning to `Cc1ccc(S[C@@H]2O[C@H](CO)[C@H](O)[C@H](OCc3cn(-c4cccc(C(=O)O)c4)nn3)[C@H]2O)cc1`, the Kd was 250 µM on Galectin-3 [1] and 760 µM at Galectin-8 [2].
On the same counts, the results for `Cc1ccc(S[C@@H]2O[C@H](CO)[C@H](O)[C@H](OCc3cn(-c4ccc(C(=O)O)cc4)nn3)[C@H]2O)cc1` are 230 µM and 1500 µM.
In the case of `Cn1c(CO[C@@H]2[C@@H](O)[C@@H](Sc3ccc(Cl)c(Cl)c3)O[C@H](CO)[C@@H]2O)nc2ccc(C(=O)O)cc21`, the Selectivity ratio in the test listed under Homo sapiens [7] and in the test filed under Homo sapiens [6] was 25 in each case. The Kd on Galectin-3 [1] worked out at 5 µM; at Galectin-9 [8], 45 µM; at Galectin-8 [9], 760 µM; at Galectin-8 [2] it was 1.8 µM; at Galectin-4 [10], 120 µM; at Galectin-1 it was 130 µM. Further, the Kd turned out to be 130 µM on Galectin-4 [11], 190 µM on Galectin-7, 16 µM at Galectin-9 [12] and 220 µM at Galectin-2.
For the compound `CO[C@@H]1O[C@H](CO)[C@H](O)[C@H](OCc2nc3ccccc3[nH]2)[C@H]1O`, the Kd at Galectin-3 [1] amounted to 1500 µM; on Galectin-8 [2], 860 µM.
Regarding `CO[C@@H]1O[C@H](CO)[C@H](O)[C@H](OCc2nc3ccccc3s2)[C@H]1O`, the Kd was found to be 510 µM on Galectin-3 [1] and 870 µM at Galectin-8 [2].
Regarding `COC(=O)c1cccc(-n2cc(CO[C@H]3[C@@H](O)[C@@H](CO)O[C@@H](Sc4ccc(C)cc4)[C@@H]3O)nn2)c1`, the results for the Kd at Galectin-3 [1] and on Galectin-8 [2] were 490 µM and 1200 µM, respectively.
On the same counts, the results for `CO[C@@H]1O[C@H](CO)[C@H](O)[C@H](OCc2nc3ccc(C(=O)O)cc3[nH]2)[C@H]1O` are 590 µM and 310 µM.
In the case of `CCOC(=O)c1ccc2c(c1)nc(CO[C@H]1[C@@H](O)[C@@H](CO)O[C@@H](OC)[C@@H]1O)n2C`, the Kd at Galectin-3 [1] came to 2000 µM; on Galectin-8 [2], 1600 µM.
On the same counts, the results for `COC(=O)c1ccccc1-n1cc(CO[C@H]2[C@@H](O)[C@@H](CO)O[C@@H](Sc3ccc(C)cc3)[C@@H]2O)nn1` are above 2000 µM and 1100 µM.
`CO[C@@H]1O[C@H](CO)[C@H](O)[C@H](OCc2cn(-c3ccccc3C(=O)O)nn2)[C@H]1O`: the outcome in test [14] was inactive. On Galectin-3 [1], the Kd was 470 µM.
